Laboratory results from patent US20230278972A1, “SUBSTITUTED HALOALKYL SULFONANILIDE HERBICIDES” (FMC Corporation, priority 2020, published 2023).

Key:
Assay type in all cases: in vivo
[1] = system: goosegrass (Eleusine indica); experiment: Test A1 preemergence, goosegrass
Outline: (§1)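 Herbicidal response was scored on plants treated either preemergence, by directed spray onto soil of a loam–sand blend after sowing, or postemergence on potted plants at the one- to two-leaf stage, 2–10 cm high. Test chemicals were carried in a non-phytotoxic solvent mix with surfactant.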

[2] = system: Foxtail, Giant (giant foxtail, Setaria faberi); experiment: Test A1 preemergence, Foxtail, Giant
Outline: as §1

[3] = system: ragweed (common ragweed, Ambrosia artemisiifolia); experiment: Test A1 postemergence, ragweed; settings: for Ragweed plant response rating: postemergence; for Plant response rating, Ragweed: Postemergence
Outline: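 Pre: seeds in loam/sand blend, directed soil spray. Post: potted plants, same soil, 2–10 cm, 1–2 leaf stage. Chemicals in non-phytotoxic solvent + surfactant for both.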

[4] = system: Ryegrass, Italian (Italian ryegrass, Lolium multiflorum); experiment: Test A1 preemergence, Ryegrass, Italian
Outline: as §1

[5] = 31 g ai/ha, 0 to 100 scale (0 no effect, 100 complete control)
[6] = 125 g ai/ha, 0 to 100 scale, 0 no effect, 100 complete control
[7] = 125 g ai/ha, 0 to 100 scale (0 no effect, 100 complete control), 10 days
[8] = 125 g ai/ha, 0 to 100 scale (0 no effect, 100 complete control)
[9] = 500 g ai/ha, 0 to 100 scale (0 no effect, 100 complete control)
[10] = 31 g ai/ha, 0 to 100 scale (0 no effect, 100 complete control), 10 days

Structure (SMILES) | Plant response rating, Goosegrass [1, 5] | Plant response rating, Goosegrass [1, 6] | Plant response rating, Foxtail, Giant [2, 5] | Plant response rating, Foxtail, Giant [2, 6] | Ragweed plant response rating [3, 5] | Plant response rating, Ragweed ([3]; 125 g ai/ha, 0 to 100 scale) | Plant response rating, Ryegrass, Italian [4, 5] | Plant response rating, Ryegrass, Italian [4, 6] | Plant response rating, Ragweed [3, 7] | Plant response rating, Goosegrass [1, 8] | Plant response rating, Foxtail, Giant [2, 8] | Plant response rating, Ryegrass, Italian [4, 8] | Plant response rating, Goosegrass [1, 9] | Plant response rating, Foxtail, Giant [2, 9] | Plant response rating, Ragweed ([3]; 500 g ai/ha, 0 to 100 scale) | Plant response rating, Ryegrass, Italian [4, 9] | Plant response rating, Ragweed [3, 10]
CCC1CC(c2cc(NS(=O)(=O)C(F)(F)F)c(C)cc2C)=NO1 (stereo not drawn) [Compound 375] | 70 | 100 | 10 | 90 | 0 | 50 | 30 | 80 | – | – | – | – | – | – | – | – | –
COC1CCC2(CC1)CCN(c1cc(NS(=O)(=O)C(F)(F)F)c(C)cc1C)C2=O (stereo not drawn) [Compound 398] | 100 | 100 | 90 | 100 | 20 | – | 60 | 100 | 80 | – | – | – | – | – | – | – | –
Cc1cc(C)c(N2Cc3cccc(Br)c3C2=O)cc1NS(=O)(=O)Cl [Compound 415] | 90 | – | 80 | – | 30 | – | – | – | 70 | 100 | 90 | 70 | – | – | – | – | –
C#CCN(C)C(=O)c1cc(NS(=O)(=O)C(F)(F)F)c(C)c(C)c1C [Compound 368] | 70 | 90 | 90 | 100 | 50 | 80 | 50 | 100 | – | – | – | – | – | – | – | – | –
Cc1ccc(C2=NOC3CCCC23)cc1NS(=O)(=O)C(F)(F)F (stereo not drawn) [Compound 377] | 0 | 20 | 0 | 0 | 20 | 30 | 0 | 40 | – | – | – | – | – | – | – | – | –
Cc1c(C(=O)N2CCC(C)CC2)cc(N(COC(=O)C(C)(C)C)S(=O)(=O)C(F)(F)F)c(C)c1C [Compound 369] | 0 | 50 | 0 | 20 | 20 | 80 | 40 | 40 | – | – | – | – | – | – | – | – | –
Cc1c(C2=NOC3(CCCC3)C2)cc(N(COC(=O)C(C)(C)C)S(=O)(=O)C(F)(F)F)c(C)c1C [Compound 382] | 0 | 30 | 0 | 30 | 20 | – | 30 | 50 | 40 | – | – | – | – | – | – | – | –
Cc1cc(C)c(N2CCC3(CCC(C)CC3)C2=O)cc1NS(=O)(=O)C(F)(F)F (stereo not drawn) [Compound 402] | 90 | 100 | 90 | 100 | 50 | – | 90 | 100 | 50 | – | – | – | – | – | – | – | –
Cc1cc(Cl)c(NS(=O)(=O)C(F)(F)F)cc1N1CCC2(CCCCC2)C1=O [Compound 393] | 100 | 100 | 70 | 100 | 60 | – | 90 | 100 | 70 | – | – | – | – | – | – | – | –
CCOC(=O)N(c1cc(C2=NOC3CCCC23)c(CC)cc1C)S(=O)(=O)C(F)(F)F (stereo not drawn) [Compound 379] | 20 | 90 | 0 | 70 | 20 | 40 | 0 | 40 | – | – | – | – | – | – | – | – | –
Cc1cc(Cl)c(NS(=O)(=O)C(F)(F)F)cc1N1CC2(CCCCC2)OC1=O [Compound 394] | 80 | 100 | 90 | 100 | 90 | – | 40 | 100 | 90 | – | – | – | – | – | – | – | –
COC1CCN(C(=O)c2cc(NS(=O)(=O)C(F)(F)F)c(C)c(C)c2C)CC1 [Compound 367] | 60 | 80 | 90 | 100 | 50 | 70 | 0 | 20 | – | – | – | – | – | – | – | – | –
Cc1cc(C)c(N(COC(=O)C(C)(C)C)S(=O)(=O)C(F)(F)F)cc1N1CCC2(CCC(C)CC2)C1=O (stereo not drawn) [Compound 401] | 0 | 30 | 0 | 0 | 60 | – | 0 | 30 | 90 | – | – | – | – | – | – | – | –
Cc1cc(C)c(N(COC(=O)C(C)(C)C)S(=O)(=O)C(F)(F)F)cc1N1CCC2(CCC(F)(F)CC2)C1=O [Compound 397] | – | 100 | – | 100 | – | – | – | 100 | 80 | – | – | – | 100 | 100 | 80 | 100 | –
Cc1cc(C)c(C2=NOC3OCCCC23)cc1NS(=O)(=O)C(F)(F)F (stereo not drawn) [Compound 372] | 90 | 100 | 90 | 100 | 40 | 80 | 40 | 90 | – | – | – | – | – | – | – | – | –
Cc1c(NS(=O)(=O)C(F)(F)F)cc(C(=O)N2CCSCC2)c(C)c1C [Compound 283] | 30 | 60 | 10 | 90 | – | 80 | 0 | 0 | – | – | – | – | – | – | – | – | 30
Cc1cc(C)c(N2CCC3(CCC(C(F)(F)F)CC3)C2=O)cc1NS(=O)(=O)C(F)(F)F (stereo not drawn) [Compound 400] | 90 | 100 | 20 | 90 | 30 | – | 60 | 90 | 80 | – | – | – | – | – | – | – | –
COc1cccc2c1C(=O)N(c1cc(N(COC(=O)C(C)(C)C)S(=O)(=O)Cl)c(C)cc1C)C2 [Compound 413] | 50 | – | 0 | – | 60 | – | – | – | 90 | 80 | 10 | 20 | – | – | – | – | –
Cc1c(C(=O)N2C[C@@H](C)O[C@H](C)C2)cc(N(COC(=O)C(C)(C)C)S(=O)(=O)C(F)(F)F)c(C)c1C (relative stereo) [Compound 373] | 30 | 100 | 0 | 90 | 50 | 80 | 0 | 0 | – | – | – | – | – | – | – | – | –
Cc1cc(C)c(N(COC(=O)C(C)(C)C)S(=O)(=O)C(F)(F)F)cc1N1CCC2(CCC(C(F)(F)F)CC2)C1=O (stereo not drawn) [Compound 403] | 0 | 0 | 0 | 10 | 0 | – | 30 | 30 | 50 | – | – | – | – | – | – | – | –
Cc1c(C(=O)N2CCSCC2)cc(N(COC(=O)C(C)(C)C)S(=O)(=O)C(F)(F)F)c(C)c1C [Compound 285] | 0 | 70 | 40 | 90 | – | 90 | 0 | 0 | – | – | – | – | – | – | – | – | 20
CCOC(=O)N(c1cc(C(=O)N2CCSCC2)c(C)c(C)c1C)S(=O)(=O)C(F)(F)F [Compound 286] | 30 | 90 | 80 | 100 | – | 40 | 0 | 0 | – | – | – | – | – | – | – | – | 0
CCOC(=O)N(c1cc(C(=O)N2C[C@@H](C)O[C@H](C)C2)c(C)c(C)c1C)S(=O)(=O)C(F)(F)F (relative stereo) [Compound 374] | 60 | 100 | 50 | 100 | 60 | 80 | 0 | 90 | – | – | – | – | – | – | – | – | –
Cc1cc(C)c(N(COC(=O)C(C)(C)C)S(=O)(=O)C(F)(F)F)cc1C1=NOC(C(C)C)C1 (stereo not drawn) [Compound 383] | 0 | 80 | 0 | 20 | 30 | – | 0 | 40 | 40 | – | – | – | – | – | – | – | –
CCc1cc(C)c(N(COC(=O)C(C)(C)C)S(=O)(=O)C(F)(F)F)cc1C1=NOC2CCCC12 (stereo not drawn) [Compound 378] | 20 | 50 | 0 | 20 | 0 | 30 | 0 | 40 | – | – | – | – | – | – | – | – | –
